Activity calls are given as the source filed them. No rule for the calls is given here.
System: CCRIS mutagenicity, Ames/micronucleus/aberration tests
Assay: CCRIS mutagenicity studies
[1] = Test System: AMES SALMONELLA TYPHIMURIUM, Strain/Indicator: TA97, Metabolic Activation: HAMSTER, LIVER, S-9, AROCLOR 1254 (10%), Method: PREINCUBATION
[2] = Test System: AMES SALMONELLA TYPHIMURIUM, Strain/Indicator: TA97, Metabolic Activation: HAMSTER, LIVER, S-9, AROCLOR 1254 (30%), Method: PREINCUBATION
[3] = Test System: AMES SALMONELLA TYPHIMURIUM, Strain/Indicator: TA97, Metabolic Activation: NONE, Method: PREINCUBATION
[4] = Test System: AMES SALMONELLA TYPHIMURIUM, Strain/Indicator: TA97, Metabolic Activation: RAT, LIVER, S-9, AROCLOR 1254 (10%), Method: PREINCUBATION
[5] = Test System: AMES SALMONELLA TYPHIMURIUM, Strain/Indicator: TA97, Metabolic Activation: RAT, LIVER, S-9, AROCLOR 1254 (30%), Method: PREINCUBATION
[6] = Test System: AMES SALMONELLA TYPHIMURIUM, Strain/Indicator: TA98, Metabolic Activation: HAMSTER, LIVER, S-9, AROCLOR 1254 (10%), Method: PREINCUBATION
[7] = Test System: AMES SALMONELLA TYPHIMURIUM, Strain/Indicator: TA98, Metabolic Activation: HAMSTER, LIVER, S-9, AROCLOR 1254 (30%), Method: PREINCUBATION
[8] = Test System: AMES SALMONELLA TYPHIMURIUM, Strain/Indicator: TA98, Metabolic Activation: NONE, Method: PREINCUBATION
[9] = Test System: AMES SALMONELLA TYPHIMURIUM, Strain/Indicator: TA98, Metabolic Activation: RAT, LIVER, S-9, AROCLOR 1254 (10%), Method: PREINCUBATION
[10] = Test System: AMES SALMONELLA TYPHIMURIUM, Strain/Indicator: TA98, Metabolic Activation: RAT, LIVER, S-9, AROCLOR 1254 (30%), Method: PREINCUBATION
[11] = Test System: AMES SALMONELLA TYPHIMURIUM, Strain/Indicator: TA100, Metabolic Activation: HAMSTER, LIVER, S-9, AROCLOR 1254 (10%), Method: PREINCUBATION
[12] = Test System: AMES SALMONELLA TYPHIMURIUM, Strain/Indicator: TA100, Metabolic Activation: HAMSTER, LIVER, S-9, AROCLOR 1254 (30%), Method: PREINCUBATION
[13] = Test System: AMES SALMONELLA TYPHIMURIUM, Strain/Indicator: TA100, Metabolic Activation: NONE, Method: PREINCUBATION
[14] = Test System: AMES SALMONELLA TYPHIMURIUM, Strain/Indicator: TA100, Metabolic Activation: RAT, LIVER, S-9, AROCLOR 1254 (10%), Method: PREINCUBATION
[15] = Test System: AMES SALMONELLA TYPHIMURIUM, Strain/Indicator: TA100, Metabolic Activation: RAT, LIVER, S-9, AROCLOR 1254 (30%), Method: PREINCUBATION
[16] = Test System: AMES SALMONELLA TYPHIMURIUM, Strain/Indicator: TA1535, Metabolic Activation: HAMSTER, LIVER, S-9, AROCLOR 1254 (10%), Method: PREINCUBATION
[17] = Test System: AMES SALMONELLA TYPHIMURIUM, Strain/Indicator: TA1535, Metabolic Activation: HAMSTER, LIVER, S-9, AROCLOR 1254 (30%), Method: PREINCUBATION
[18] = Test System: AMES SALMONELLA TYPHIMURIUM, Strain/Indicator: TA1535, Metabolic Activation: NONE, Method: PREINCUBATION
[19] = Test System: AMES SALMONELLA TYPHIMURIUM, Strain/Indicator: TA1535, Metabolic Activation: RAT, LIVER, S-9, AROCLOR 1254 (10%), Method: PREINCUBATION
[20] = Test System: AMES SALMONELLA TYPHIMURIUM, Strain/Indicator: TA1535, Metabolic Activation: RAT, LIVER, S-9, AROCLOR 1254 (30%), Method: PREINCUBATION
[21] = Test System: AMES SALMONELLA TYPHIMURIUM, Strain/Indicator: TA98, Metabolic Activation: NONE, Method: STANDARD PLATE
[22] = Test System: AMES SALMONELLA TYPHIMURIUM, Strain/Indicator: TA100, Metabolic Activation: NONE, Method: STANDARD PLATE

SMILES | mutagenic call [6] | mutagenic call [7] | mutagenic call [8] | mutagenic call [9] | mutagenic call [10] | mutagenic call [11] | mutagenic call [12] | mutagenic call [13] | mutagenic call [14] | mutagenic call [15] | mutagenic call [16] | mutagenic call [18] | mutagenic call [19] | mutagenic call [22] | also measured
N#C/C(N)=C(/N)C#N | inactive; negative | inactive; negative | inactive; negative | inactive; negative | inactive; negative | inactive; negative | inactive; negative | inactive; negative | inactive; negative | inactive; negative | inactive; negative | inactive; negative | inactive; negative |  | mutagenic call [1]: inactive; negative; mutagenic call [2]: inactive; negative; mutagenic call [3]: inactive; negative; mutagenic call [4]: inactive; negative; mutagenic call [5]: inactive; negative; mutagenic call [17]: inactive; negative; mutagenic call [20]: inactive; negative; mutagenic call (Test System: MOUSE LYMPHOMA, Strain/Indicator: L5178Y (TK+/TK-), Metabolic Activation: NONE, Method: SUSPENSION/PLATE): active; positive. reevaluation of results: positive; mutagenic call (Test System: MOUSE LYMPHOMA, Strain/Indicator: L5178Y (TK+/TK-), Metabolic Activation: RAT, LIVER, S-9, AROCLOR 1254, Method: SUSPENSION/PLATE): active; positive. reevaluation of results: positive
O=[N+]([O-])c1cc([N+](=O)[O-])c2c3ccccc3c3cccc4ccc1c2c43 |  |  |  |  |  |  |  |  |  |  |  |  |  |  | mutagenic call [21]: active; positive
O=[N+]([O-])c1ccccc1CCO | inactive; negative | inactive; negative | inactive; negative | inactive; negative | inactive; negative | inactive; negative | active; positive | inactive; negative | inactive; negative | inactive; negative | inactive; negative | inactive; negative | inactive; negative |  | mutagenic call (Test System: AMES SALMONELLA TYPHIMURIUM, Strain/Indicator: TA100, Metabolic Activation: RAT, LIVER, S-9, AROCLOR 1254 (5%), Method: PREINCUBATION): inactive; negative; mutagenic call (Test System: AMES SALMONELLA TYPHIMURIUM, Strain/Indicator: TA1537, Metabolic Activation: HAMSTER, LIVER, S-9, AROCLOR 1254 (10%), Method: PREINCUBATION): inactive; negative; mutagenic call (Test System: AMES SALMONELLA TYPHIMURIUM, Strain/Indicator: TA1537, Metabolic Activation: NONE, Method: PREINCUBATION): inactive; negative; mutagenic call (Test System: AMES SALMONELLA TYPHIMURIUM, Strain/Indicator: TA1537, Metabolic Activation: RAT, LIVER, S-9, AROCLOR 1254 (10%), Method: PREINCUBATION): inactive; negative
O=c1c2ccccc2[nH]c2ccccc12 |  |  |  |  |  |  |  |  |  |  |  |  |  |  | mutagenic call (Test System: AMES SALMONELLA TYPHIMURIUM, Strain/Indicator: TA100, Metabolic Activation: GUINEA PIG, LIVER, S-9, 3-METHYLCHOLANTHRENE, Method: STANDARD PLATE): inactive; negative
c1ccc2c(c1)ccc1c3c(ccc12)CCC3 |  |  |  |  |  |  |  |  |  |  |  |  |  | inactive; negative | mutagenic call (Test System: AMES SALMONELLA TYPHIMURIUM, Strain/Indicator: TA100, Metabolic Activation: RAT, LIVER, S-9, AROCLOR 1254, Method: STANDARD PLATE): inactive; negative
COC(=O)c1cc(-c2ccc(N)c(C(=O)OC)c2)ccc1N |  |  |  |  |  |  |  |  |  |  |  |  |  | inactive; negative | mutagenic call (Test System: AMES SALMONELLA TYPHIMURIUM, Strain/Indicator: TA98(1,8-DNP6), Metabolic Activation: NONE, Method: STANDARD PLATE): inactive; negative; mutagenic call (Test System: AMES SALMONELLA TYPHIMURIUM, Strain/Indicator: TA98(1,8-DNP6), Metabolic Activation: S-9, Method: STANDARD PLATE): active; positive; mutagenic call [21]: inactive; negative; mutagenic call (Test System: AMES SALMONELLA TYPHIMURIUM, Strain/Indicator: TA98, Metabolic Activation: S-9, Method: STANDARD PLATE): active; positive; mutagenic call (Test System: AMES SALMONELLA TYPHIMURIUM, Strain/Indicator: TA100, Metabolic Activation: S-9, Method: STANDARD PLATE): inactive; negative
O=C1c2c(O)cccc2Cc2cccc(O)c21 | inactive; negative | inactive; negative | inactive; negative | inactive; negative | inactive; negative | inactive; negative | inactive; negative | inactive; negative | inactive; negative | inactive; negative | inactive; negative | inactive; negative | inactive; negative | inactive; negative | mutagenic call [1]: inactive; negative; mutagenic call [2]: inactive; negative; mutagenic call [3]: inactive; negative; mutagenic call [4]: inactive; negative; mutagenic call [5]: inactive; negative; mutagenic call (Test System: AMES SALMONELLA TYPHIMURIUM, Strain/Indicator: TA100, Metabolic Activation: FISH, LIVER, S-9, 3-METHYLCHOLANTHRENE, Method: STANDARD PLATE): inactive; negative; mutagenic call [17]: inactive; negative; mutagenic call [20]: inactive; negative; mutagenic call (Test System: AMES SALMONELLA TYPHIMURIUM, Strain/Indicator: TA1537, Metabolic Activation: NONE, Method: STANDARD PLATE): inactive; negative; mutagenic call (Test System: AMES SALMONELLA TYPHIMURIUM, Strain/Indicator: TA1537, Metabolic Activation: RAT, LIVER, S-9, PHENOBARBITAL AND BETA-NAPHTHOFLAVONE, Method: STANDARD PLATE): active; positive; mutagenic call (Test System: E. COLI, Strain/Indicator: WP2, Metabolic Activation: NONE, Method: STANDARD PLATE): inactive; negative; mutagenic call (Test System: E. COLI, Strain/Indicator: WP2, Metabolic Activation: RAT, LIVER, S-9, AROCLOR 1254, Method: STANDARD PLATE): inactive; negative; mutagenic call (Test System: E. COLI, Strain/Indicator: WP2 UVRA, Metabolic Activation: NONE, Method: STANDARD PLATE): inactive; negative; mutagenic call (Test System: E. COLI, Strain/Indicator: WP2 UVRA, Metabolic Activation: RAT, LIVER, S-9, AROCLOR 1254, Method: STANDARD PLATE): inactive; negative
